Here are results for 29 molecules from patent US10703757B2, “Compounds and methods for CDK8 modulation and indications therefor” (Plexxikon Inc., priority 2016, dated 2020).

The test system of assay [1] is CDK8 (phosphorylation of STAT1 at serine 727 in A549 cells). In words: Cell based Phospho-STAT1 assay (IFNγ-stimulated A549 cells, AlphaLISA). To be noted: Homo sapiens, A549, A549 cells, phospho-STAT1 after IFNγ stimulation. In short, it runs like this: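 A549 cells given serial compound dilutions for 1 h at 37 °C, then stimulated with IFNγ at 10 ng/mL final for 30 min. Lysate STAT1 Ser727 phosphorylation measured by AlphaLISA; % inhibition vs stimulated/unstimulated DMSO controls, IC50 by nonlinear regression.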
A general note: In Alpha technology, singlet oxygen from a donor bead excites a nearby acceptor bead.

The test system of assay [2] is CDK8 (TCF/LEF luciferase reporter in HCT116 cells). Description: Cell based TCF/LEF reporter assay (HCT116+TCF/LEF luciferase). To be noted: Homo sapiens, HCT-116, 24 h. In short, it runs like this:
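HCT116 cells stably carrying a TCF/LEF-luciferase reporter (endogenous mutant β-catenin), seeded overnight, then exposed to serial compound dilutions for 24 h at 37 °C. Luminescence normalized to CellTiter-Fluor viability signal. % inhibition relative to DMSO and 10 uM CCT251545 controls, with IC50 from nonlinear regression.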
On the technique in general: A reporter such as luciferase makes a cellular process visible.

As a reminder, the IC50 is the concentration at which inhibition is half-maximal. `COc1ncc(C#Cc2cnc3cccc(N4CCC(C#N)CC4)n23)cn1` [Compound P-0313, 1-(3-((2-methoxypyrimidin-5-yl)ethynyl)imidazo[1,2-a]pyridin-5-yl)piperidine-4-carbonitrile]: the IC50 in assay [1] and in assay [2] was 100 to 1000 nM in each case.

As for `N#CC1CCC(c2nccn3ncc(-c4ccc(-c5cnn(CC6CCC6)c5)cc4)c23)CC1` (stereo not shown) [Compound P-0022, (1s,4s)-4-(3-(4-(1-(cyclobutylmethyl)-1H-pyrazol-4-yl)phenyl)pyrazolo[1,5-a]pyrazin-4-yl)cyclohexane-1-carbonitrile], the IC50 in assay [1] and in assay [2] was 0.1 to 100 nM each time.

Regarding `COc1ccc2cc(-c3cnn4ccnc(C#CC(C)(C)O)c34)ccc2n1` [Compound P-0198, 4-(3-(2-methoxyquinolin-6-yl)pyrazolo[1,5-a]pyrazin-4-yl)-2-methylbut-3-yn-2-ol], the IC50 in assay [1] and in assay [2] was 100 to 1000 nM throughout.

On to `N#CC1CCN(c2cccn3ncc(-c4ccc(OCc5ccccc5)cc4)c23)CC1` [Compound P-0267, 1-(3-(4-(benzyloxy)phenyl)pyrazolo[1,5-a]pyridin-4-yl)piperidine-4-carbonitrile], for which the IC50 in assay [1] and in assay [2] was 100 to 1000 nM throughout.

As for `CC(C)(C#Cc1cccn2ncc(-c3ccc(-c4cnn(CC(F)F)c4)cc3)c12)C(N)=O` [Compound P-0467, 4-(3-(4-(1-(2,2-difluoroethyl)-1H-pyrazol-4-yl)phenyl)pyrazolo[1,5-a]pyridin-4-yl)-2,2-dimethylbut-3-ynamide], the IC50 in assay [1] and in assay [2] was 0.1 to 100 nM each time.

For the molecule `Cn1cc(-c2ccc(-c3cnc4cccc(C5=CCC(C#N)CC5)n34)cc2)cn1` (stereo not shown) [Compound P-0445, 4-(3-(4-(1-methyl-1H-pyrazol-4-yl)phenyl)imidazo[1,2-a]pyridin-5-yl)cyclohex-3-ene-1-carbonitrile], the IC50 in assay [1] and in assay [2] was 0.1 to 100 nM throughout.

For `N#CC1CC=C(c2nccn3ncc(-c4ccc(C(N)=O)c(F)c4)c23)CC1` (stereo not shown) [Compound P-0105, 4-(4-(4-cyanocyclohex-1-en-1-yl)pyrazolo[1,5-a]pyrazin-3-yl)-2-fluorobenzamide], the IC50 in assay [1] lay in the range of 0.1 to 100 nM; in assay [2], 100 to 1000 nM.

On to `CC(C)(O)C#Cc1cccn2ncc(-c3ccc(-c4cnoc4)cc3)c12` [Compound P-0228, 4-(3-(4-(isoxazol-4-yl)phenyl)pyrazolo[1,5-a]pyridin-4-yl)-2-methylbut-3-yn-2-ol], for which the IC50 in assay [1] and in assay [2] was 1000 to 10000 nM in each case.

Regarding `N#CC1CC=C(c2nccn3ncc(-c4ccc(-c5cnn(CC(=O)O)c5)c(F)c4)c23)CC1` (stereo not shown) [Compound P-0116, 2-(4-(4-(4-(4-cyanocyclohex-1-en-1-yl)pyrazolo[1,5-a]pyrazin-3-yl)-2-fluorophenyl)-1H-pyrazol-1-yl)acetic acid], the IC50 in assay [1] and in assay [2] was 100 to 1000 nM each time.

As to `Cn1ncc2cc(-c3cnn4cccc(C#CC5(O)COC5)c34)ccc21` [Compound P-0362, 3-((3-(1-methyl-1H-indazol-5-yl)pyrazolo[1,5-a]pyridin-4-yl)ethynyl)oxetan-3-ol], the IC50 is 0.1 to 100 nM in assay [1] and 100 to 1000 nM in assay [2].

On to `Cn1ncc2cc(-c3cnn4cccc(N5CCC6(CCNC6=O)CC5)c34)ccc21` [Compound P-0169, 8-(3-(1-methyl-1H-indazol-5-yl)pyrazolo[1,5-a]pyridin-4-yl)-2,8-diazaspiro[4.5]decan-1-one], for which the IC50 in assay [1] and in assay [2] was 0.1 to 100 nM each time.

Take `N#CC1CC=C(c2nccn3ncc(-c4ccc5[nH]ncc5c4)c23)CC1` (stereo not shown) [Compound P-0070, 4-(3-(1H-indazol-5-yl)pyrazolo[1,5-a]pyrazin-4-yl)cyclohex-3-ene-1-carbonitrile]: the IC50 in assay [1] and in assay [2] was 0.1 to 100 nM throughout.

For `CC(C)(O)Cn1ncc2cc(-c3cnn4ccnc(C5=CCC(C#N)CC5)c34)ccc21` (stereo not shown) [Compound P-0111, 4-(3-(1-(2-hydroxy-2-methylpropyl)-1H-indazol-5-yl)pyrazolo[1,5-a]pyrazin-4-yl)cyclohex-3-ene-1-carbonitrile], the IC50 in assay [1] and in assay [2] was 0.1 to 100 nM in each case.

Take `CS(=O)(=O)CCn1cc(-c2ccc(-c3cnn4ccnc(C5=CCC(C#N)CC5)c34)cc2)cn1` (stereo not shown) [Compound P-0033, 4-(3-(4-(1-(2-(methylsulfonyl)ethyl)-1H-pyrazol-4-yl)phenyl)pyrazolo[1,5-a]pyrazin-4-yl)cyclohex-3-ene-1-carbonitrile]: the IC50 in assay [1] and in assay [2] was 0.1 to 100 nM each time.

In the case of `N#CC1CCC(c2nccn3ncc(-c4ccc(-c5cnn(CCN6CCCC6)c5)cc4)c23)CC1` (stereo not shown) [Compound P-0017, (1s,4s)-4-(3-(4-(1-(2-(pyrrolidin-1-yl)ethyl)-1H-pyrazol-4-yl)phenyl)pyrazolo[1,5-a]pyrazin-4-yl)cyclohexane-1-carbonitrile], the IC50 in assay [1] and in assay [2] was 0.1 to 100 nM in each case.

Consider `N#CC1CCN(c2cccn3ncc(-c4ccc(OCCN5CCOCC5)cc4)c23)CC1` [Compound P-0261, 1-(3-(4-(2-morpholino-ethoxy)phenyl)pyrazolo[1,5-a]pyridin-4-yl)piperidine-4-carbonitrile], for which the IC50 in assay [1] and in assay [2] was 0.1 to 100 nM throughout.

Turning to `N#CC1CC=C(c2nccn3ncc(-c4cc5ccccc5s4)c23)CC1` (stereo not shown) [Compound P-0073, 4-(3-(benzo[b]thiophen-2-yl)pyrazolo[1,5-a]pyrazin-4-yl)cyclohex-3-ene-1-carbonitrile], the IC50 in assay [1] and in assay [2] was 0.1 to 100 nM each time.

With `CC(C)(O)Cn1cc(-c2ccc(-c3cnn4ccnc(C5=CCC(C#N)CC5)c34)cc2)cn1` (stereo not shown) [Compound P-0162, 4-(3-(4-(1-(2-hydroxy-2-methylpropyl)-1H-pyrazol-4-yl)phenyl)pyrazolo[1,5-a]pyrazin-4-yl)cyclohex-3-ene-1-carbonitrile], the IC50 in assay [1] and in assay [2] was 0.1 to 100 nM in each case.

Turning to `CC(C)(O)c1ccc(-c2cnn3ccnc(C4=CCC(C#N)CC4)c23)cc1` (stereo not shown) [Compound P-0040, 4-(3-(4-(2-hydroxypropan-2-yl)phenyl)pyrazolo[1,5-a]pyrazin-4-yl)cyclohex-3-ene-1-carbonitrile], the IC50 in assay [1] and in assay [2] was 0.1 to 100 nM throughout.

Take `N#CC1CCC(c2cccn3ncc(-c4ccc(F)cc4)c23)CC1` (stereo not shown) [Compound P-0139, 4-(3-(4-fluorophenyl)pyrazolo[1,5-a]pyridin-4-yl)cyclohexane-1-carbonitrile]: the IC50 in assay [1] and in assay [2] was 0.1 to 100 nM in each case.

In the case of `N#CC1CC=C(c2nccn3ncc(-c4ccc(-c5cnn(CC(N)=O)c5)cc4)c23)CC1` (stereo not shown) [Compound P-0027, 2-(4-(4-(4-(4-cyanocyclohex-1-en-1-yl)pyrazolo[1,5-a]pyrazin-3-yl)phenyl)-1H-pyrazol-1-yl)acetamide], the IC50 in assay [1] and in assay [2] was 0.1 to 100 nM throughout.

On to `Cn1cc(-c2ccc(-c3cnn4cccc(C5=CCC(C(=O)O)CC5)c34)cc2)cn1` (stereo not shown) [Compound P-0444, 4-(3-(4-(1-methyl-1H-pyrazol-4-yl)phenyl)pyrazolo[1,5-a]pyridin-4-yl)cyclohex-3-ene-1-carboxylic acid], for which the IC50 in assay [1] and in assay [2] was 100 to 1000 nM throughout.

As to `CC(C)(C#Cc1cccn2ncc(-c3ccc(-c4cnn(CCN5CCCC5)c4)cc3)c12)C(N)=O` [Compound P-0465, 2,2-dimethyl-4-(3-(4-(1-(2-(pyrrolidin-1-yl)ethyl)-1H-pyrazol-4-yl)phenyl)pyrazolo[1,5-a]pyridin-4-yl)but-3-ynamide], the IC50 in assay [1] and in assay [2] was 0.1 to 100 nM each time.

In the case of `N#CC1CC=C(c2nccn3ncc(-c4ccc(-c5cnn(C(F)F)c5)cc4)c23)CC1` (stereo not shown) [Compound P-0012, 4-(3-(4-(1-(difluoromethyl)-1H-pyrazol-4-yl)phenyl)pyrazolo[1,5-a]pyrazin-4-yl)cyclohex-3-ene-1-carbonitrile], the IC50 in assay [1] and in assay [2] was 0.1 to 100 nM each time.

Turning to `CC(C)(O)Cn1ncc2cc(-c3cnc4[nH]ccc4c3C3=CCC(C#N)CC3)ccc21` (stereo not shown) [Compound P-0113], the IC50 in assay [1] and in assay [2] was 0.1 to 100 nM throughout.

On to `N#CC1CCN(c2c(-c3ccc(OCCCN4CCOCC4)cc3)cnc3[nH]ccc23)CC1` [Compound P-0327, 1-(5-(4-(3-morpholinopropoxy)phenyl)-1H-pyrrolo[2,3-b]pyridin-4-yl)piperidine-4-carbonitrile], for which the IC50 in assay [1] and in assay [2] was 0.1 to 100 nM throughout.

In the case of `CC(C)(O)Cn1cc2cc(-c3cnc4[nH]ccc4c3C3=CCC(C#N)CC3)ccc2n1` (stereo not shown) [Compound P-0112, 4-(5-(2-(2-hydroxy-2-methylpropyl)-2H-indazol-5-yl)-1H-pyrrolo[2,3-b]pyridin-4-yl)cyclohex-3-ene-1-carbonitrile], the values for the IC50 in assay [1] and in assay [2] were 0.1 to 100 nM and 100 to 1000 nM, respectively.

On to `Cc1cc(-c2ccc(-c3cnn4cccc(C#CC(C)(C)O)c34)cc2)n[nH]1` [Compound P-0234, 2-methyl-4-(3-(4-(5-methyl-1H-pyrazol-3-yl)phenyl)pyrazolo[1,5-a]pyridin-4-yl)but-3-yl-2-ol], for which the values for the IC50 in assay [1] and in assay [2] were 100 to 1000 nM and 0.1 to 100 nM, respectively.

In the case of `CC(C)(C#Cc1cccn2ncc(-c3ccc(-c4cnn(CC(F)(F)F)c4)cc3)c12)C(N)=O` [Compound P-0468, 2,2-dimethyl-4-(3-(4-(1-(2,2,2-trifluoroethyl)-1H-pyrazol-4-yl)phenyl)pyrazolo[1,5-a]pyridin-4-yl)but-3-ynamide], the IC50 in assay [1] and in assay [2] was 0.1 to 100 nM in each case.
